The record followed here is ChEMBL document CHEMBL1201862, “PubChem BioAssay data set” (2004).

Among the test systems are SN12C; UO-31; OVCAR-4; SF-268; NCI/ADR-RES; UACC-257; BT-549; SNB-19; ACHN; SF-539; EKVX; MDA-N; RXF 393; MOLT-4; U-251; HOP-62; SK-OV-3; K562; MDA-MB-435; T47D.
Assay in all cases: growth of human tumour cells (NCI), 48 h

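Protocol summary: plate cells (96-well), add compound at 5 concentrations, incubate 48 h, interpolate endpoints linearly. GI50 is the concentration that inhibits growth by half.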 Calls of active or inactive are those of the source. Rule as the data show it: active = GI50 up to about 1.1 µM and inactive = higher.

Turning to `CCc1cc2c(oc3cc4ccccc4cc32)c(=O)[nH]1`, the GI50 in the test with SN12C, with UO-31, in the test on OVCAR-4, with SF-268, in the test with NCI/ADR-RES and with UACC-257 was > 10 µM (inactive) each time. Besides, the GI50 in the test on BT-549, in the test on SNB-19, with ACHN, in the test on SF-539, in the test on EKVX and with MDA-N was > 10 µM (inactive) throughout. Moreover, in the test on RXF 393, the GI50 was > 10 µM (inactive).

For `CCOP(=O)(OCC)C1CC(C)OC1=O` (stereo not given), the GI50 in the test with MOLT-4, in the test with U-251, with SN12C, in the test on UO-31, in the test with OVCAR-4 and in the test with SF-268 was > 100 µM (inactive) each time. In addition, the GI50 in the test on UACC-257, in the test with HOP-62, in the test on SNB-19, in the test on SK-OV-3, with ACHN and in the test with SF-539 was > 100 µM (inactive) throughout. The GI50 in the test on EKVX, in the test with K562 and in the test with RXF 393 was > 100 µM (inactive) throughout.

For the compound `CCCCCCC(=O)OC[n+]1ccc2c(C)c3[nH]c4ccc(OC)cc4c3c(C)c2c1`, the GI50 in the test on MDA-MB-435 was 0.454 µM (active); with MOLT-4, 0.0378 µM (active); in the test with U-251, 0.282 µM (active); in the test with SN12C, 0.0625 µM (active); in the test on UO-31, 0.83 µM (active); with OVCAR-4, 0.679 µM (active). Also, the GI50 with SF-268 was 0.154 µM (active); with NCI/ADR-RES it was 0.2 µM (active); with T47D, 0.883 µM (active); in the test with UACC-257 it was 1.01 µM (active); in the test with HOP-62, 0.105 µM (active); in the test with SNB-19 it was 0.308 µM (active). Further, the GI50 in the test on SK-OV-3 was 0.585 µM (active); with ACHN, 0.0656 µM (active); in the test with SF-539 it was 0.299 µM (active); in the test on EKVX, 0.8 µM (active); in the test on K562, 0.0611 µM (active); in the test with MDA-N, 0.324 µM (active). Also, in the test with RXF 393, the GI50 was 0.247 µM (active).

Take `CCC1(C)NN=c2s/c(=C/c3ccc(OC)cc3)c(=O)n2N1` (stereo not given): the GI50 is > 100 µM (inactive) in the test on MOLT-4; > 100 µM (inactive) in the test on U-251; > 100 µM (inactive) in the test on SN12C; > 100 µM (inactive) with UO-31; 35.7 µM (inactive) in the test with OVCAR-4; 65 µM (inactive) in the test on SF-268. In addition, the GI50 was > 100 µM (inactive) with HOP-62; > 100 µM (inactive) in the test with SNB-19; > 100 µM (inactive) with SK-OV-3; > 100 µM (inactive) in the test with ACHN; 90.6 µM (inactive) in the test on SF-539; > 100 µM (inactive) with EKVX. In addition, the GI50 with K562 was > 100 µM (inactive); in the test with RXF 393 it was 49.4 µM (inactive).

For the compound `CC(C)OCC(O)COc1cc(=O)oc2ccccc12` (stereo not given), the GI50 with MDA-MB-435, in the test with MOLT-4, in the test on U-251, in the test on SN12C, with UO-31 and with OVCAR-4 was > 100 µM (inactive) throughout. The GI50 in the test with SF-268, in the test on NCI/ADR-RES, in the test on T47D, with UACC-257, with HOP-62 and in the test with SNB-19 was > 100 µM (inactive) throughout. For the same compound, the GI50 in the test on SK-OV-3, in the test with ACHN, in the test on EKVX, in the test with K562 and with MDA-N was > 100 µM (inactive) in each case.

As to `CC(C)(C)c1cc2ccc(C(N)=O)cc2c(=O)[nH]1`, the GI50 was > 100 µM (inactive) in the test with MOLT-4; 51.3 µM (inactive) with U-251; > 100 µM (inactive) in the test with SN12C; 63.8 µM (inactive) in the test with UO-31; > 100 µM (inactive) with OVCAR-4; > 100 µM (inactive) in the test with SF-268. Also, the GI50 in the test on UACC-257 is > 100 µM (inactive); with HOP-62, > 100 µM (inactive); in the test on SNB-19, > 100 µM (inactive); in the test on SK-OV-3 it was > 100 µM (inactive); in the test with ACHN, > 100 µM (inactive); with SF-539, 46.8 µM (inactive). The GI50 in the test on EKVX was 82.4 µM (inactive); in the test on K562, > 100 µM (inactive); in the test with RXF 393, 44.9 µM (inactive).

As for `N=NCC(=O)OC(COCc1ccccc1)COCc1ccccc1`, the GI50 with MDA-MB-435 is > 100 µM (inactive); in the test with MOLT-4, 39.7 µM (inactive); in the test on U-251, > 100 µM (inactive); in the test on SN12C, 80.5 µM (inactive); with UO-31, 21.9 µM (inactive); in the test with OVCAR-4 it was 69.7 µM (inactive). The GI50 in the test with SF-268, with UACC-257, in the test with BT-549, in the test on HOP-62, in the test with SNB-19 and in the test on SK-OV-3 was > 100 µM (inactive) in each case. For the same compound, the GI50 is 25.9 µM (inactive) in the test on ACHN, > 100 µM (inactive) in the test with EKVX, 47 µM (inactive) in the test with K562 and > 100 µM (inactive) in the test on RXF 393.

In the case of `Cc1ccc(S(=O)(=O)N/N=C2\C=CC3(CC2)C(=O)N(I)c2ccccc23)cc1` (stereo not given), the GI50 with MDA-MB-435 was > 100 µM (inactive); in the test with MOLT-4, 42.6 µM (inactive); in the test with U-251, > 100 µM (inactive); with SN12C, > 100 µM (inactive); with UO-31 it was > 100 µM (inactive); with OVCAR-4, > 100 µM (inactive). Moreover, the GI50 is 90.6 µM (inactive) with SF-268; > 100 µM (inactive) in the test with NCI/ADR-RES; > 100 µM (inactive) with T47D; > 100 µM (inactive) in the test on UACC-257; > 100 µM (inactive) in the test on HOP-62; > 100 µM (inactive) in the test with SNB-19. Further, the GI50 with SK-OV-3 was > 100 µM (inactive); with ACHN, > 100 µM (inactive); with SF-539, 11 µM (inactive); in the test with EKVX it was > 100 µM (inactive); in the test on K562, 25.1 µM (inactive); with MDA-N it was 83 µM (inactive). Also, the GI50 in the test on RXF 393 is 15.1 µM (inactive).

As for `CC(=O)Nc1ccc(C2CC(c3ccc([N+](=O)[O-])cc3)=Nc3ccccc3[S+]2[O-])cc1` (stereo not given), the GI50 in the test with MOLT-4 was 12.6 µM (inactive); in the test on SN12C it was 24.5 µM (inactive); with UO-31 it was 16.7 µM (inactive); in the test on OVCAR-4 it was 18.9 µM (inactive); with SF-268, 36.6 µM (inactive); with UACC-257, 28.6 µM (inactive). Also, the GI50 was 22.1 µM (inactive) in the test with HOP-62; 36.8 µM (inactive) in the test on SNB-19; 27.4 µM (inactive) with SK-OV-3; 20.6 µM (inactive) with ACHN; 24.6 µM (inactive) in the test with SF-539; 36.5 µM (inactive) in the test on EKVX. Further, the results for the GI50 in the test with K562 and in the test on RXF 393 were 4.58 µM (inactive) and 17.4 µM (inactive), respectively.

For `COc1ccc(CC2=NCCc3cc(OC)c(OC)cc32)cc1Br`, the GI50 is 6.18 µM (inactive) with MOLT-4; 18.1 µM (inactive) in the test with U-251; 15.8 µM (inactive) with SN12C; 16.8 µM (inactive) in the test on UO-31; 15.2 µM (inactive) with OVCAR-4; 41.7 µM (inactive) in the test with SF-268. For the same compound, the GI50 with UACC-257 is 21.3 µM (inactive); with HOP-62, 4.36 µM (inactive); with SNB-19 it was 12.7 µM (inactive); in the test with SK-OV-3, 16.9 µM (inactive); in the test on ACHN, 12.9 µM (inactive); in the test on SF-539 it was 24.7 µM (inactive). Further, the GI50 in the test with EKVX is 40.6 µM (inactive); with K562, 3.66 µM (inactive); with RXF 393 it was 21.1 µM (inactive).

In the case of `O=c1c2cccc3cccc(c4n1CCN=4)c32`, the GI50 was 30.3 µM (inactive) in the test on MOLT-4; > 100 µM (inactive) with U-251; > 100 µM (inactive) with SN12C; 41 µM (inactive) in the test with UO-31; 40.8 µM (inactive) with OVCAR-4; > 100 µM (inactive) in the test on SF-268. The GI50 in the test on UACC-257 is > 100 µM (inactive); in the test on HOP-62, 93.3 µM (inactive); with SK-OV-3, 41 µM (inactive); in the test on ACHN, 56 µM (inactive); in the test on SF-539, > 100 µM (inactive); in the test with EKVX, > 100 µM (inactive). Further, the GI50 in the test on K562 was > 100 µM (inactive); with RXF 393 it was 42.4 µM (inactive).

For the compound `O=c1[nH]c2ccc([N+](=O)[O-])cc2nc1/C(=N/Nc1ccccc1)C(O)c1ccco1` (stereo not given), the GI50 in the test on MOLT-4 was 38.5 µM (inactive); in the test on U-251 it was > 100 µM (inactive); in the test on SN12C it was > 100 µM (inactive); in the test with UO-31, 44.2 µM (inactive); in the test on OVCAR-4 it was 66.2 µM (inactive); with SF-268, 71.6 µM (inactive). Further, the GI50 in the test on UACC-257 was > 100 µM (inactive); with HOP-62, > 100 µM (inactive); in the test on SNB-19, > 100 µM (inactive); with SK-OV-3 it was > 100 µM (inactive); in the test on ACHN, 33.9 µM (inactive); with SF-539, > 100 µM (inactive). In addition, the figures for the GI50 in the test with EKVX, in the test with K562 and in the test with RXF 393 were > 100 µM (inactive), 35.2 µM (inactive) and 52.8 µM (inactive), respectively.

Regarding `COC(=O)/C(Cl)=C1/CC1COCc1ccccc1` (stereo not given), the GI50 with MOLT-4 is 19.8 µM (inactive); with SN12C it was 36.6 µM (inactive); in the test on UO-31, 28.8 µM (inactive); in the test on OVCAR-4, 31 µM (inactive); with SF-268, 43.8 µM (inactive); in the test with UACC-257 it was 34.7 µM (inactive). In addition, the GI50 in the test on HOP-62 was > 100 µM (inactive); in the test with SNB-19 it was 78.9 µM (inactive); in the test with SK-OV-3 it was > 100 µM (inactive); with ACHN it was 25.4 µM (inactive); in the test with SF-539 it was 23.8 µM (inactive); with EKVX, > 10 µM (inactive). In addition, the GI50 is 17.9 µM (inactive) in the test on K562 and 18.9 µM (inactive) with RXF 393.
